# According to ChEMBL document CHEMBL1135339, “Structure-activity relationships of novel anti-malarial agents. Part 4: N-(3-benzoyl-4-tolylacetylaminophenyl)-3-(5-aryl-2-furyl)acrylic acid amides” (Bioorg Med Chem Lett, 2002):
# Test system: Plasmodium falciparum
# Assay: Inhibitory concentration against multidrug-resistant Plasmodium falciparum Dd2.
# Type: functional, organism-based
row,SMILES,IC50 [nM]
1,Cc1ccc(CC(=O)Nc2ccc(NC(=O)/C=C/c3ccc(-c4ccc(OC(F)(F)F)cc4)o3)cc2C(=O)c2ccccc2)cc1,210
2,Cc1ccc(CC(=O)Nc2ccc(NC(=O)/C=C/c3ccc(-c4cccc([N+](=O)[O-])c4)o3)cc2C(=O)c2ccccc2)cc1,590
3,C=Cc1ccc(-c2ccc(/C=C/C(=O)Nc3ccc(NC(=O)Cc4ccc(C)cc4)c(C(=O)c4ccccc4)c3)o2)cc1,85
4,Cc1ccc(CC(=O)Nc2ccc(NC(=O)/C=C/c3ccc(-c4ccccc4[N+](=O)[O-])o3)cc2C(=O)c2ccccc2)cc1,670
5,Cc1ccc(CC(=O)Nc2ccc(NC(=O)/C=C/c3ccc(-c4ccc(C)cc4)o3)cc2C(=O)c2ccccc2)cc1,120
6,Cc1ccc(CC(=O)Nc2ccc(NC(=O)/C=C/c3ccc(-c4ccc(Br)cc4)o3)cc2C(=O)c2ccccc2)cc1,125
7,Cc1ccc(CC(=O)Nc2ccc(NC(=O)/C=C/c3ccc(-c4ccc(F)cc4)o3)cc2C(=O)c2ccccc2)cc1,320
8,CCOc1ccc(-c2ccc(/C=C/C(=O)Nc3ccc(NC(=O)Cc4ccc(C)cc4)c(C(=O)c4ccccc4)c3)o2)cc1,300
9,Cc1ccc(CC(=O)Nc2ccc(NC(=O)/C=C/c3ccc(-c4ccc([N+](=O)[O-])cc4)o3)cc2C(=O)c2ccccc2)cc1,75
10,Cc1ccc(CC(=O)Nc2ccc(NC(=O)/C=C/c3ccc(-c4ccc5ccccc5c4)o3)cc2C(=O)c2ccccc2)cc1,200
11,COc1ccc(-c2ccc(/C=C/C(=O)Nc3ccc(NC(=O)Cc4ccc(C)cc4)c(C(=O)c4ccccc4)c3)o2)cc1,130
12,CCCOc1ccc(-c2ccc(/C=C/C(=O)Nc3ccc(NC(=O)Cc4ccc(C)cc4)c(C(=O)c4ccccc4)c3)o2)cc1,750
13,Cc1ccc(CC(=O)Nc2ccc(NC(=O)/C=C/c3ccc(-c4ccc(C(C)(C)C)cc4)o3)cc2C(=O)c2ccccc2)cc1,300
14,Cc1ccc(CC(=O)Nc2ccc(NC(=O)/C=C/c3ccc(-c4ccc(Cl)cc4)o3)cc2C(=O)c2ccccc2)cc1,145
15,CCc1ccc(-c2ccc(/C=C/C(=O)Nc3ccc(NC(=O)Cc4ccc(C)cc4)c(C(=O)c4ccccc4)c3)o2)cc1,88
16,Cc1ccc(CC(=O)Nc2ccc(NC(=O)/C=C/c3ccc(-c4cccc5ccccc45)o3)cc2C(=O)c2ccccc2)cc1,1000
17,Cc1ccc(CC(=O)Nc2ccc(NC(=O)/C=C/c3ccc(-c4ccccc4)o3)cc2C(=O)c2ccccc2)cc1,415
18,CSc1ccc(-c2ccc(/C=C/C(=O)Nc3ccc(NC(=O)Cc4ccc(C)cc4)c(C(=O)c4ccccc4)c3)o2)cc1,84
